One assay addresses FXa (Homo sapiens, UniProt P00742). Nature of the assay: Inhibition of factor Xa (FXa-IC50). The class given is biochemical. The source says: The inhibition of factor Xa by the compounds according to the invention and the measurement of the anticoagulant and antithrombotic activity can be determined by conventional in-vitro or in-vivo methods. A suitable method is described, for example, by J. Hauptmann et al. in Thrombosis and Haemostasis 1990, 63, 220-223.
The inhibition of factor Xa can be measured, for example by the method of T. Hara et al. in Thromb. Haemostas. 1994, 71, 314-319.

The target in the next assay is TF/FVIla (Homo sapiens, UniProt P08709). Nature of the assay: Inhibition of TF/factor VIIa (TF/FVIIa-IC50). The class given is biochemical. The source says:
The inhibition of factor VIIa by the compounds according to the invention and the measurement of the anticoagulant and antithrombotic activity can be determined by conventional in-vitro or in-vivo methods. A conventional method for the measurement of the inhibition of factor VIIa is described, for example, by H. F. Ronning et al. in Thrombosis Research 1996, 84, 73-81.

Here are results for two molecules from patent US20060135515A1, “Heterocyclic amides and their use treating thromboembolic diseases and tumors” (priority 2002, published 2006).

Each structure is given as a SMILES string.

Chain of FXa (P00742 235-488 limits assumed): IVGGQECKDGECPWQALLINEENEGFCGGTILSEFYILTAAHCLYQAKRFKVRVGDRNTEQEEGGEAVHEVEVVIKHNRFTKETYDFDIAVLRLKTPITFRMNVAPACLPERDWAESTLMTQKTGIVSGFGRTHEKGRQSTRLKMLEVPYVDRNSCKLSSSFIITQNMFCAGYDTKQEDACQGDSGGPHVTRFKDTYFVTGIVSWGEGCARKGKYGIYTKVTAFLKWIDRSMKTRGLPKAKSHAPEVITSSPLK
Chain of FXa (P00742 41-179 partner limits assumed): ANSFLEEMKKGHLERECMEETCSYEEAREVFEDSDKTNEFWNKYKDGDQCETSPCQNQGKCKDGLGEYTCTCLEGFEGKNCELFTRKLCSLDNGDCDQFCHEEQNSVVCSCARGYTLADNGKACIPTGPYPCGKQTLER
Chain of TF/FVIla (P08709 213-466 limits assumed): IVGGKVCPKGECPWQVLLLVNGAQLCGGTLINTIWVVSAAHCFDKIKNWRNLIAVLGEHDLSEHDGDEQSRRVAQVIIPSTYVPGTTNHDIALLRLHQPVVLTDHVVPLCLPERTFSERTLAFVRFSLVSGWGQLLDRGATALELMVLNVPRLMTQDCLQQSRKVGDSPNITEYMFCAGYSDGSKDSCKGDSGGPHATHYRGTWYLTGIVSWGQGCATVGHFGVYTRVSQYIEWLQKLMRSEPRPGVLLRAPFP
Chain of TF/FVIla (P08709 61-212 partner limits assumed): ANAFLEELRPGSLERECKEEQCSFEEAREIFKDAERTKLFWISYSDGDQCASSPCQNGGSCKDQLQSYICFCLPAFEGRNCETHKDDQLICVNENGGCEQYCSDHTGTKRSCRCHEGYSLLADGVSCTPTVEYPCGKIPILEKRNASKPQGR
Chain of TF/FVIla (P13726 33-295 partner): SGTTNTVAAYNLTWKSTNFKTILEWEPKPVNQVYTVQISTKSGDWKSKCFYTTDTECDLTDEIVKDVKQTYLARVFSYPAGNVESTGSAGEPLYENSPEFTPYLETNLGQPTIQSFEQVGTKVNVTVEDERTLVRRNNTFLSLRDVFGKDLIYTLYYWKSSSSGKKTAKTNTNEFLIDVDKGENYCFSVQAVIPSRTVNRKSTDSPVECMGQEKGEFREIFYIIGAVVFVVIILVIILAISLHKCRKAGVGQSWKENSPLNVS

For `CCC[C@@H](NC(=O)Nc1ccc(Cl)s1)C(=O)Nc1ccc(N2CCOCC2=O)c(C)c1` [Compound A2, (R)-2-[3-(5-chlorothiophen-2-yl)ureido]-N-[4-(3-oxomorpholin-4-yl)-3-methylphenyl]valeramide], the IC50 against FXa and against TF/FVIla was 66 nM in each case.

Consider `CCCC(NC(=O)Nc1ccc(Cl)s1)C(=O)Nc1ccc(N2CCOCC2=O)cc1` (stereo not shown) [Compound A1, N-[4-(3-oxomorpholin-4-yl)-phenyl]-2-[3-(5-chlorothiophen-2-yl)ureido]valeramide], for which the IC50 on FXa came out at 190 nM; at TF/FVIla it was 180 nM.

One may read the IC50 as the concentration at which inhibition is half-maximal. A lower IC50 goes with greater potency in that assay.
